Assay results: patent US20250177269A1, “COMPOSITION FOR PROMOTING HAIR SPROUTING OR HAIR GROWTH CONTAINING A THYMOL ESTER-BASED COMPOUND” (AMOREPACIFIC CORPORATION, priority 2023, published 2025)

Test system: dermal papilla (DP) cells and outer root sheath (ORS) cells
Test: "Two-Cell Assemblage" Assay, hair growth-promoting efficacy
Type: cell-based
Conditions: 10 ppm, 20 ppm; cultured for 5 days; vs. control
Method: The hair growth-promoting efficacy of 3,4,5-trimethoxycinnamate thymol ester (Melasolv) according to the concentration (10 ppm, 20 ppm) was evaluated using “Two-Cell Assemblage” Assay (“Two-Cell Assemblage” Assay: A Simple in vitro Method for Screening Hair Growth-Promoting Compounds) (Front Cell Dev Biol. 2020 Nov. 24; 8:581528).
The “Two-Cell Assemblage” Assay is an evaluation method that mimics the hair growth of actual hair follicles by co-culturing dermal papilla (DP) cells and outer root sheath (ORS) cells that constitute the hair follicle. That is, the length growth of the “Two-Cell Assemblage” structure has a mechanism similar to that of the actual hair follicle growth, and is being used as a new method of evaluating hair growth-promoting efficacy.
5,000 hair follicle dermal papilla cells were seeded on an ultra-low attachment 96-well plate to form 3D spheroids. After 24 hours, 5,000 outer root sheath cells (Kyungpook National University Industry-Academic Cooperation Foundation) were added together with the test substance to create a “Two-Cell assemblage” structure and cultured for 5 days under 37° C., 5% CO2 conditions. After culturing for 5 days, the length growth was measured using a microscope (OLYMPUS, SZX16) and shown in the Figure (* p<0.05, ** p<0.01, *** p<0.001 vs. control).

## COc1cc(/C=C/C(=O)Oc2cc(C)ccc2C(C)C)cc(OC)c1OC [Melasolv, (5-methyl-2-propan-2-ylphenyl) (E)-3-(3,4,5-trimethoxyphenyl) prop-2-enoate]
  length growth of the "Two-Cell Assemblage" structure (hair growth efficacy): significant level of length growth-promoting efficacy
